# Laboratory results published in patent publication US12570639B2, “Tetrahydroquinoline derivative and medicinal use thereof” (Toray Industries, Inc., priority 2020, dated 2026).
# What was measured:
# [1] = In vitro radical scavenging action (DPPH method); settings: 30 minutes at room temperature, maximum concentration 100 μmol/L
# Method: Radical scavenging action was evaluated using the DPPH method in the compound of Comparative Example 1, which is a tetrahydroquinoxaline derivative, and in the tetrahydroquinoline derivative (I) or a pharmaceutically acceptable salt thereof. The DPPH method was performed using an antioxidant capacity measurement kit (Dojindo Laboratories).
# A test compound was dissolved in DMSO, and the resulting solution was then mixed with an assay buffer and a DPPH solution, which are included in the kit, to a total volume of 200 μL to obtain a final concentration of 10% DMSO, and the reaction was allowed to proceed. Wells added with 100 μmol/L ferrostatin-1, a radical scavenger, were grouped as “control,” and wells added with not test compound were grouped as “background.” The test compound was serially diluted 3-fold starting from a maximum concentration of 100 μmol/L, and the diluted test compound (1.2, 3.7, 11.1, 33.3, or 100 μmol/L) was added and allowed to react at room temperature. Thirty minutes after the reaction, the absorbance at 517 nm was measured, and the average absorbance value was calculated (N=2). The radical scavenging action of the test compound (hereinafter referred to as radical scavenging rate, %) was calculated based on the equation 2 below. The EC50 value of the test compound was calculated from the radical scavenging rate. Radical scavenging rate (%)=[1−{(Average absorbance value at 517 nm measured when a test compound is added)−(Average absorbance value at 517 nm measured in the background)}/{(Average absorbance value at 517 nm measured in the control)−(Average absorbance value at 517 nm measured in the background)}]×100 Equation 2
# A note “no detection of radical scavenging action (N.D.),” is given to compounds with a EC50 of >100 μmol/L.
# [2] = system: Human fibrosarcoma cells (HT-1080 cells); test: In vitro inhibitory action against ferroptosis (Erastin-induced cell death, Cell Counting Kit-8); assay type: cell-based; settings: Erastin 3 μmol/L, 24 hours
# [3] = evaluation concentration 30 μmol/L
# [4] = evaluation concentration 50 μmol/L
SMILES,EC50 [1],Radical-scavenging action EC50 (μmol/L) [1],"Ferroptosis inhibition rate (%) [2, 3]","Ferroptosis inhibition rate (%) [2, 4]"
"c1ccc(C2CNc3ccccc3N2)cc1 (stereo not shown) [Comparative Example 1, 2-phenyl-1,2,3,4-tetrahydroquinoxaline, reference compound]",8.54 µM,exhibited radical scavenging action,–,–
"c1ccc([C@H]2CCc3ccccc3N2)cc1 [Example 2, (R)-2-phenyl-1,2,3,4-tetrahydroquinoline]",> 100 µM,–,117.4%,–
"c1ccc([C@@H]2CCc3ccccc3N2)cc1 [Example 3, (S)-2-phenyl-1,2,3,4-tetrahydroquinoline]",> 100 µM,–,110.2%,–
"CS(=O)(=O)c1ccc(C2CCc3ccccc3N2)cc1 (stereo not shown) [Example 16, 2-(4-(methylsulfonyl)phenyl)-1,2,3,4-tetrahydroquinoline]",> 100 µM,–,–,90.31%
"CC(=O)Nc1ccc(C2CCc3ccccc3N2)cc1 (stereo not shown) [Example 21, N-(4-(1,2,3,4-tetrahydroquinolin-2-yl)phenyl)acetamide]",> 100 µM,–,88.33%,–
"Fc1ccc(C2CCc3ccccc3N2)cc1 (stereo not shown) [Example 26, 2-(4-fluorophenyl)-1,2,3,4-tetrahydroquinoline]",> 100 µM,–,–,107.7%
"FC(F)(F)c1ccc(C2CCc3ccccc3N2)cc1 (stereo not shown) [Example 29, 2-(4-(trifluoromethyl)phenyl)-1,2,3,4-tetrahydroquinoline]",> 100 µM,–,–,95.38%
"FC(F)(F)Oc1ccc(C2CCc3ccccc3N2)cc1 (stereo not shown) [Example 31, 2-(4-(trifluoromethoxy)phenyl)-1,2,3,4-tetrahydroquinoline]",> 100 µM,–,–,98.99%
"NS(=O)(=O)c1ccc(C2CCc3ccccc3N2)cc1 (stereo not shown) [Example 34, 4-(1,2,3,4-tetrahydroquinolin-2-yl)benzenesulfonamide]",> 100 µM,–,86.96%,–
"N#Cc1ccc(C2CCc3ccccc3N2)cc1 (stereo not shown) [Example 35, 4-(1,2,3,4-tetrahydroquinolin-2-yl)benzonitrile]",> 100 µM,–,106.5%,–
"NC(=O)c1ccc(C2CCc3ccccc3N2)cc1 (stereo not shown) [Example 37, 4-(1,2,3,4-tetrahydroquinolin-2-yl)benzamide]",> 100 µM,–,98.69%,–
"OCc1ccc2c(c1)CCC(c1ccccc1)N2 (stereo not shown) [Example 58, (2-phenyl-1,2,3,4-tetrahydroquinolin-6-yl)methanol]",> 100 µM,–,91.37%,–
"NC(=O)Cc1ccc2c(c1)CCC(c1ccccc1)N2 (stereo not shown) [Example 60, 2-(2-phenyl-1,2,3,4-tetrahydroquinolin-6-yl)acetamide]",> 100 µM,–,98.74%,–
"CC(C)(C)NC(=O)Cc1ccc2c(c1)CCC(c1ccccc1)N2 (stereo not shown) [Example 61, N-(tert-butyl)-2-(2-phenyl-1,2,3,4-tetrahydroquinolin-6-yl)acetamide]",> 100 µM,–,103.9%,–
"O=C(Cc1ccc2c(c1)CCC(c1ccccc1)N2)N1CC(O)C1 (stereo not shown) [Example 62, 1-(3-hydroxyazetidin-1-yl)-2-(2-phenyl-1,2,3,4-tetrahydroquinolin-6-yl)ethan-1-one]",> 100 µM,–,103.2%,–
"Fc1cccc2c1CCC(c1ccccc1)N2 (stereo not shown) [Example 66, 5-fluoro-2-phenyl-1,2,3,4-tetrahydroquinoline]",> 100 µM,–,101.5%,–
"Clc1cccc2c1CCC(c1ccccc1)N2 (stereo not shown) [Example 67, 5-chloro-2-phenyl-1,2,3,4-tetrahydroquinoline]",> 100 µM,–,102.4%,–
"Fc1ccc2c(c1)NC(c1ccccc1)CC2 (stereo not shown) [Example 68, 7-fluoro-2-phenyl-1,2,3,4-tetrahydroquinoline]",> 100 µM,–,101.9%,–
"O=C1CCc2cc(C3CCc4ccccc4N3)ccc2N1 (stereo not shown) [Example 126, 1,2,3,3′,4,4′-hexahydro-[2,6′-biquinolin]-2′(1′H)-one]",–,–,97.29%,–
"CC(C)(C)NC(=O)Nc1ccc2c(c1)CCC(c1ccccc1)N2 (stereo not shown) [Example 127, 1-(tert-butyl)-3-(2-phenyl-1,2,3,4-tetrahydroquinolin-6-yl)urea]",–,–,87.93%,–

SMILES,EC50 [1],Radical-scavenging action EC50 (μmol/L) [1],"Ferroptosis inhibition rate (%) [2, 3]","Ferroptosis inhibition rate (%) [2, 4]"
"CC(C)(C)NC(=O)Nc1ccc2c(c1)CCC(c1ccccc1)N2 (stereo not shown) [Example 128, 1-(tert-butyl)-3-(2-phenyl-1,2,3,4-tetrahydroquinolin-6-yl)urea]",–,–,91.83%,–
"CC(C)(C)CC(=O)Nc1ccc2c(c1)CCC(c1ccccc1)N2 (stereo not shown) [Example 129, 3,3-dimethyl-N-(2-phenyl-1,2,3,4-tetrahydroquinolin-6-yl)butanamide]",–,–,88.31%,–
"CC(C)(C)CC(=O)Nc1ccc2c(c1)CCC(c1ccccc1)N2 (stereo not shown) [Example 130, 3,3-dimethyl-N-(2-phenyl-1,2,3,4-tetrahydroquinolin-6-yl)butanamide]",–,–,104.2%,–
"O=C1CCc2cc(C3CCc4cc(F)ccc4N3)ccc2N1 (stereo not shown) [Example 133, 6-fluoro-1,2,3,3′,4,4′-hexahydro-[2,6′-biquinolin]-2′(1′H)-one]",–,–,98.54%,–
"O=C1CCc2cc(C3CCc4ccc(F)cc4N3)ccc2N1 (stereo not shown) [Example 139, 7-fluoro-1,2,3,3′,4,4′-hexahydro-[2,6′-biquinolin]-2′(1′H)-one]",–,–,60.63%,–
N#Cc1ccc(C2CCc3ccccc3N2)cc1F (stereo not shown) [Example 141],–,–,59.10%,–
"NS(=O)(=O)c1ccc(C2CCc3cc(C(F)(F)F)ccc3N2)cc1 (stereo not shown) [Example 142, 4-(6-(trifluoromethyl)-1,2,3,4-tetrahydroquinolin-2-yl)benzenesulfonamide]",–,–,64.86%,–
"O=C(Cc1ccc2c(c1)CCC(c1ccccc1)N2)NCC1CC1 (stereo not shown) [Example 153, N-(cyclopropylmethyl)-2-(2-phenyl-1,2,3,4-tetrahydroquin-olin-6-yl)acetamide]",–,–,110.1%,–
"O=C(Cc1ccc2c(c1)CCC(c1ccccc1)N2)NCC1COC1 (stereo not shown) [Example 154, N-(oxetan-3-ylmethyl)-2-(2-phenyl-1,2,3,4-tetrahydroquin-olin-6-yl)acetamide]",–,–,114.6%,–
"O=C(Cc1ccc2c(c1)CCC(c1ccccc1)N2)N1CCCC1 (stereo not shown) [Example 156, 2-(2-phenyl-1,2,3,4-tetrahydroquinolin-6-yl)-1-(pyrrolidin-1-yl)ethan-1-one]",–,–,57.76%,–
"CNC(=O)Cc1ccc2c(c1)CCC(c1ccccc1)N2 (stereo not shown) [Example 159, N-methyl-2-(2-phenyl-1,2,3,4-tetrahydroquinolin-6-yl)acetamide]",–,–,76.27%,–
"c1ccc(C2CNc3ccccc3C2)cc1 (stereo not shown) [Example 162, 3-phenyl-1,2,3,4-tetrahydroquinoline]",–,–,–,108.4%
"Clc1ccc2c(c1)CC(c1ccccc1)CN2 (stereo not shown) [Example 163, 6-chloro-3-phenyl-1,2,3,4-tetrahydroquinoline]",–,–,89.32%,–
"Clc1ccc2c(c1)NCC(c1ccccc1)C2 (stereo not shown) [Example 164, 7-chloro-3-phenyl-1,2,3,4-tetrahydroquinoline]",–,–,72.33%,–
"OCc1ccc(C2CNc3ccccc3C2)cc1 (stereo not shown) [Example 165, (4-(1,2,3,4-tetrahydroquinolin-3-yl)phenyl)methanol]",–,–,96.77%,–
"NC(=O)c1ccc(C2CNc3ccccc3C2)cc1 (stereo not shown) [Example 166, 4-(1,2,3,4-tetrahydroquinolin-3-yl)benzamide]",–,–,96.52%,–
"NS(=O)(=O)c1ccc(C2CNc3ccccc3C2)cc1 (stereo not shown) [Example 167, 4-(1,2,3,4-tetrahydroquinolin-3-yl)benzenesulfonamide]",–,–,76.82%,–
"CC(=O)Nc1ccc(C2CNc3ccccc3C2)cc1 (stereo not shown) [Example 168, N-(4-(1,2,3,4-tetrahydroquinolin-3-yl)phenyl)acetamide]",–,–,86.46%,–
"CS(=O)(=O)c1ccc(C2CNc3ccccc3C2)cc1 (stereo not shown) [Example 169, 3-(4-(methylsulfonyl)phenyl)-1,2,3,4-tetrahydroquinoline]",–,–,85.58%,–
"c1cncc(C2CNc3ccccc3C2)c1 (stereo not shown) [Example 170, 3-(pyridin-3-yl)-1,2,3,4-tetrahydroquinoline]",–,–,93.41%,–
